# From patent publication US6399655B1, “Method for the prophylactic treatment of cataracts” (Johns Hopkins University, School of Medicine, priority 1998, dated 2002)
# What was measured:
# [1] = tested on: Zucker diabetic fatty (ZDF, fa/fa) rats; test: Cataract formation in Zucker diabetic fatty rats fed genistein in chow for six months; type: in vivo, rat
# Procedure: (§1) Thirty pair of litter mates of Zucker rats, i.e., thirty male retired breeder Zucker diabetic fatty (ZDF, fa/fa) rats and thirty male retired breeder lean Zucker (fa/+) rats, were obtained (Genetic Models, Inc., Indianapolis, Ind.). The animals were treated in accordance with The Association for Research in Vision and Ophthalmology (ARVO) Statement for the Use of Animals in Ophthalmic and Vision Research. The average blood glucose value was more than 500 mg/dl for the Zucker diabetic fatty rats and 120 mg/dl for the control lean rats as measured by glucose oxidase assay at the time of death (Danis et al. (1993), supra).
# (§2) Zucker diabetic fatty rats were divided into four groups and fed Purina 5008 rat chow containing varying concentrations of genistein: 0 mg/kg chow, 75 mg/kg chow, 150 mg/kg chow and 300 mg/kg chow. Cataract formation was assessed after six months of treatment. The extent of cataract formation was determined after dilating pupils with phenylephrine (2.5%) and Tropicamide (1%) in rats under general anesthesia resulting from intraperitoneal injections of ketamine (40 mg/kg) and xylazine (4 mg/kg). Disease progression was categorized as total cataract, partial cataract (mainly minimal posterior subcapsular cataract), or no cataract.
# lean Zucker (fa/+) rats = test: Cataract formation in lean Zucker control rats fed genistein in chow; type: in vivo, rat; conditions: lean Zucker rats, 0, 75, 150 or 300 mg Genistein/kg chow, six months
# Procedure: as §1, §2
# Zucker lean rats were also divided into 4 groups and fed Purina 5008 chow containing 0, 75, 150 or 300 mg Genistein/ kg chow. […]
# retina = test: Retinal toxicity by electroretinography after oral genistein; type: in vivo; conditions: 75 mg/kg/day to 300 mg/kg/day, six months, Zucker diabetic fatty rats
# Description: (§3) An advantage of genistein is that it is very safe and efficacious. […] Also, no effect of orally administered genistein was found with respect to the weight of the ovaries and the uterus in female rats.
# [2] = Food intake and body weight after oral genistein; type: in vivo; conditions: oral administration, male and female rats
# Description: as §3
# [3] = Weight of the ovaries and the uterus after oral genistein; type: in vivo; conditions: oral administration, female rats
# Description: as §3
smiles,measurement,setting,value
"O=c1c(-c2ccc(O)cc2)coc2cc(O)cc(O)c12 [genistein, 5,7-dihydroxy-3-(4-hydroxyphenyl)-4H-1-benzopyran-4-one]",Partial Cataract (number of rats),"[1]; 75 mg/kg chow, n = 7",3
same,Total Cataract (number of rats),"[1]; 75 mg/kg chow, n = 7",4
same,No Cataract (number of rats),"[1]; 150 mg/kg chow, n = 8",2
same,Partial Cataract (number of rats),"[1]; 150 mg/kg chow, n = 8",2
same,Total Cataract (number of rats),"[1]; 150 mg/kg chow, n = 8",4
same,Partial Cataract (number of rats),"[1]; 300 mg/kg chow, n = 8",3
same,Total Cataract (number of rats),"[1]; 300 mg/kg chow, n = 8",5
same,Inhibition of cataract formation,[1]; 75-300 mg/kg chow,significantly inhibits cataract formation
same,Cataracts in lean control rats,lean Zucker (fa/+) rats,not present
same,Toxicity to the retina as measured by electroretinography,retina,nontoxic to the retina
same,Effect on body weight,[2],no effect
same,Effect on food intake,[2],no effect
same,Effect on weight of the ovaries and the uterus,[3],no effect
